Measurements as given in US20230072421A1, “TARGETED RADIOPHARMACEUTICALS FOR THE DIAGNOSIS AND TREATMENT OF PROSTATE CANCER” (Bayer AS, priority 2019, published 2023).

Biological target: T1, PSMA-expressing LNCaP cells (Homo sapiens, UniProt Q04609)
T1 construct: PSMA-expressing LNCaP cells; endogenous in cells; host or cells: LNCaP
Experiment: Binding competition assay against 3H-PSMA-617 on LNCaP cells
Details: for remaining activity at 0.01 µM / remaining activity at 0.1 µM / % remaining 3H-PSMA-617 @ 10 nM (mean) / % remaining 3H-PSMA-617 @ 100 nM (mean): LNCaP cells, 10 nM 3H-PSMA-617, 2 h at 37° C., triplicates; for remaining activity at 0.01 µM / % remaining 3H-PSMA-617 @ 10 nM (mean): competing non-radiolabeled compound 10 nM; for remaining activity at 0.1 µM / % remaining 3H-PSMA-617 @ 100 nM (mean): competing non-radiolabeled compound 100 nM
Protocol: Cells were incubated at 37° C. and 5% CO2 over night. […] After addition of the compounds in growth media the cells were swiveled slightly on a shaker mixing for 10 min followed by incubation for 2 h at 37° C., 5% C02. Following the incubation time the supernatant was removed by pipetting and cells were washed twice with ice cold PBS (total of 800 μl). Cells were lysed in 500 μl of 0.3M NaOH (PanReac AppliChem ITW Reagents) by vigorous shaking for 15 min and the cell lysated pipetted into scintillator tubes (S207-[…]® Scintillation Vials 6.5 ml #S207, Simport). In the following the wells were washed with 500 μl PBS and the washing PBS added to the corresponding samples in the sincitallator tubes. To each sample in the scintillator tubes 4 mL of Ultima Gold liquid scintillation cocktail (Sigma-Aldrich #L8286) was added and the samples let stand for at least 30 min. Thereafter radioactivity was counted in a Tri-Carb Liquid Scinzillation Analyzer (Perkin Elmer).

T1 sequence (Q04609 whole entry): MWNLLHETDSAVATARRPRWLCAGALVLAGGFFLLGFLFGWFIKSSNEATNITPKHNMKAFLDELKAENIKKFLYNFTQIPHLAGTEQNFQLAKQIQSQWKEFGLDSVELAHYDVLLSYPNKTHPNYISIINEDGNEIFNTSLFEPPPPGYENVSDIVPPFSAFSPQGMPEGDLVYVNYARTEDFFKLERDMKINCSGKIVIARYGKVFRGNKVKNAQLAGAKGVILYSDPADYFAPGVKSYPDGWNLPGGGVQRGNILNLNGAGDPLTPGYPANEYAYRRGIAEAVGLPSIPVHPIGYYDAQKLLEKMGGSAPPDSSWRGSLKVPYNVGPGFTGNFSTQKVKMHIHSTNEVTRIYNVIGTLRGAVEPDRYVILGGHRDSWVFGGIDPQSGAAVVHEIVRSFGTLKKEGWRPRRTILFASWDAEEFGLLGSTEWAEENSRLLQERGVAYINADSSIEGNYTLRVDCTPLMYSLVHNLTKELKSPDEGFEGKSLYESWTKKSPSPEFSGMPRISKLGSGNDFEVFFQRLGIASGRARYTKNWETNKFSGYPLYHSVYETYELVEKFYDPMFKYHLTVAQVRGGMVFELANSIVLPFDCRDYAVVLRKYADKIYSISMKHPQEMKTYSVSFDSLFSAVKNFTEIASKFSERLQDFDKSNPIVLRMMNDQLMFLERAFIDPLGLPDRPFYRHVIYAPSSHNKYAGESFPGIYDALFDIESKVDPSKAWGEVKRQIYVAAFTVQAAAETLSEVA

Row | SMILES | remaining activity at 0.01 µM [%] | remaining activity at 0.1 µM [%] | % remaining 3H-PSMA-617 @ 10 nM (mean) [%] | % remaining 3H-PSMA-617 @ 100 nM (mean) [%] | competition against 3H-PSMA-617 on PSMA-expressing LNCaP cells (in words) (comparison between examples)
1 | COc1c(C[C@@H](NC(=O)c2ccc(CNC(=O)CN3CCN(CC(=O)O)CCN(CC(=O)O)CCN(CC(=O)O)CC3)cn2)C(=O)NCCCC[C@H](NC(=O)N[C@@H](CCC(=O)O)C(=O)O)C(=O)O)ccc2ccccc12 [Example 33a-B, (3R,10S,14S)-3-[(1-methoxynaphthalen-2-yl)methyl]-1,4,12-trioxo-1-[5-({2-[4,7,10-tris(carboxymethyl)-1,4,7,10-tetraazacyclododecan-1-yl]acetamido}methyl)pyridin-2-yl]-2,5,11,13-tetraazahexadecane-10,14,16-tricarboxylic acid] | 74 | 42 |  |  | 
2 | O=C(O)CC[C@H](NC(=O)N[C@@H](CCCCNC(=O)[C@H](Cc1ccc2ccccc2c1)NC(=O)[C@H]1CC[C@H](CNC(=O)C[N+]23CC[N+]45CC[N+]67CC[N+]8(CC2)CC(=O)[O][Th]3486([O]C(=O)C5)[O]C(=O)C7)CC1)C(=O)O)C(=O)O (some centres unmarked) [Example 1-B-232Th, {3-[(naphthalen-2-yl)methyl]-1,4,12-trioxo-1-{4-[(2-{4,7,10-tris[(carboxy-kappaO)methyl]-1,4,7,10-tetraazacyclododecan-1-yl-kappa^4N^1,N^4,N^7,N^10}acetamido)methyl]cyclohexyl}-2,5,11,13-tetraazahexadecane-10,14,16-tricarboxylato(4−)}thorium(3+)] |  |  | 71 | 12 | 
3 | NCC1CCC(C(=O)N[C@@H](CCCNC(N)=O)C(=O)NCCCC[C@H](NC(=O)N[C@@H](CCC(=O)O)C(=O)O)C(=O)O)CC1 (stereo partly drawn) [Example 4-A, N^6—{N^2-[(1r,4S)-4-(aminomethyl)cyclohexane-1-carbonyl]-N^5-carbamoyl-L-ornithyl}-N^2-{[(1S)-1,3-dicarboxypropyl]carbamoyl}-L-lysine] | 106 | 112 |  |  | 
4 | O=C(O)CC[C@H](NC(=O)N[C@@H](CCCCNC(=O)[C@H](Cc1ccc2ccccc2n1)NC(=O)C1CCC(CNC(=O)C[N+]23CC[N+]45CCN6CC[N+]7(CC2)CC(=O)[OH+][Th]347([O]C(=O)C6)[O]C(=O)C5)CC1)C(=O)O)C(=O)O (some centres unmarked) [Example 17-B-232Th] |  |  | 46 | 10 | 
5 | O=C(O)CC[C@H](NC(=O)N[C@@H](CCCCNC(=O)[C@H](Cc1ccc2ccccc2c1)NC(=O)[C@H]1CC[C@H](CNC(=S)Nc2ccc(CC(CN(CCNC(=O)c3ccn(CCO)c(=O)c3O)CCNC(=O)c3ccn(CCO)c(=O)c3O)CN(CCNC(=O)c3ccn(CCO)c(=O)c3O)CCNC(=O)c3ccn(CCO)c(=O)c3O)cc2)CC1)C(=O)O)C(=O)O [Example 1-F, (3S,10S,14S)-1-{(1r,4S)-4-[({[4-(3-[bis(2-{[3-hydroxy-1-(2-hydroxyethyl)-2-oxo-1,2-dihydropyridine-4-carbonyl]amino}ethyl)amino]-2-{[bis(2-{[3-hydroxy-1-(2-hydroxyethyl)-2-oxo-1,2-dihydropyridine-4-carbonyl]amino}ethyl)amino]methyl}propyl)phenyl]carbamothioyl}amino)methyl]cyclohexyl}-3-[(naphthalen-2-yl)methyl]-1,4,12-trioxo-2,5,11,13-tetraazahexadecane-10,14,16-tricarboxylic acid] | 71 | 21 |  |  | 
6 | COc1c(C[C@@H](NC(=O)[C@H]2CC[C@H](CNC(=O)CN3CCN(CC(=O)O)CCN(CC(=O)O)CCN(CC(=O)O)CC3)CC2)C(=O)NCCCC[C@H](NC(=O)N[C@@H](CCC(=O)O)C(=O)O)C(=O)O)ccc2ccccc12 [Example 33-B, (3R,10S,14S)-3-[(1-methoxynaphthalen-2-yl)methyl]-1,4,12-trioxo-1-[(1r,4S)-4-({2-[4,7,10-tris(carboxymethyl)-1,4,7,10-tetraazacyclododecan-1-yl]acetamido}methyl)cyclohexyl]-2,5,11,13-tetraazahexadecane-10,14,16-tricarboxylic acid] | 114 | 40 |  |  | 
7 | NC[C@H]1CC[C@H](C(=O)N[C@@H](Cc2cc(F)c(F)c(F)c2)C(=O)NCCCC[C@H](NC(=O)N[C@@H](CCC(=O)O)C(=O)O)C(=O)O)CC1 [Example 6-A, N^6—{N-[(1r,4S)-4-(aminomethyl)cyclohexane-1-carbonyl]-3,4,5-trifluoro-L-phenylalanyl}-N^2-{[(1S)-1,3-dicarboxypropyl]carbamoyl}-L-lysine] | 98 | 86 |  |  | 
8 | O=C(O)CC[C@H](NC(=O)N[C@@H](CCCCNC(=O)[C@@H](Cc1ccc2cnccc2c1)NC(=O)[C@H]1CC[C@H](CNC(=O)CN2CCN(CC(=O)O)CCN(CC(=O)O)CCN(CC(=O)O)CC2)CC1)C(=O)O)C(=O)O [Example 44-B, (3R,10S,14S)-3-[(isoquinolin-6-yl)methyl]-1,4,12-trioxo-1-[(1r,4S)-4-({2-[4,7,10-tris(carboxymethyl)-1,4,7,10-tetraazacyclododecan-1-yl]acetamido}methyl)cyclohexyl]-2,5,11,13-tetraazahexadecane-10,14,16-tricarboxylic acid] | 75 | 22 |  |  | 

Second part, led by results:

Row | remaining activity at 0.01 µM [%] | remaining activity at 0.1 µM [%] | SMILES | % remaining 3H-PSMA-617 @ 10 nM (mean) [%] | % remaining 3H-PSMA-617 @ 100 nM (mean) [%] | competition against 3H-PSMA-617 on PSMA-expressing LNCaP cells (in words) (comparison between examples)
9 | 84 | 79 | COc1ccc(CC(NC(=O)[C@H]2CC[C@H](CN)CC2)C(=O)NCCCC[C@H](NC(=O)N[C@@H](CCC(=O)O)C(=O)O)C(=O)O)cc1OC (stereo partly drawn) [Example 19-A, N^6—{N-[(1r,4S)-4-(aminomethyl)cyclohexane-1-carbonyl]-3-methoxy-O-methyl-L-tyrosyl}-N^2-{[(1S)-1,3-dicarboxypropyl]carbamoyl}-L-lysine] |  |  | 
10 | 73 | 74 | NC[C@H]1CC[C@H](C(=O)N[C@@H](Cc2ccc3ncccc3c2)C(=O)NCCCC[C@H](NC(=O)N[C@@H](CCC(=O)O)C(=O)O)C(=O)O)CC1 [Example 48-A, (3S,10S,14S)-1-[trans-4-(aminomethyl)cyclohexyl]-1,4,12-trioxo-3-[(quinolin-6-yl)methyl]-2,5,11,13-tetraazahexadecane-10,14,16-tricarboxylic acid] |  |  | 
11 | 91 | 60 | NC[C@H]1CC[C@H](C(=O)N[C@@H](Cc2cccc(F)c2)C(=O)NCCCC[C@H](NC(=O)N[C@@H](CCC(=O)O)C(=O)O)C(=O)O)CC1 [Example 10-A, N^6—{N-[(1r,4S)-4-(aminomethyl)cyclohexane-1-carbonyl]-3-fluoro-L-phenylalanyl}-N^2-{[(1S)-1,3-dicarboxypropyl]carbamoyl}-L-lysine] |  |  | 
12 | 93 | 21 | NCc1ccc(C(=O)N[C@@H](Cc2ccc3ccccc3c2)C(=O)NCCCC[C@H](NC(=O)N[C@@H](CCC(=O)O)C(=O)O)C(=O)O)nc1 [Example 25-A, (3S,10S,14S)-1-[5-(aminomethyl)pyridin-2-yl]-3-[(naphthalen-2-yl)methyl]-1,4,12-trioxo-2,5,11,13-tetraazahexadecane-10,14,16-tricarboxylic acid] |  |  | improved competition in comparison to the cyclohexyl examples 1-A and 1-B
13 | 110 | 103 | NC[C@H]1CC[C@H](C(=O)N[C@@H](Cc2ccc(-c3ccccc3)cc2)C(=O)NCCCC[C@H](NC(=O)N[C@@H](CCC(=O)O)C(=O)O)C(=O)O)CC1 [Example 11a-A, (3S,10S,14S)-1-[(1r,4S)-4-(aminomethyl)cyclohexyl]-3-[([1,1′-biphenyl]-4-yl)methyl]-1,4,12-trioxo-2,5,11,13-tetraazahexadecane-10,14,16-tricarboxylic acid] |  |  | 
14 | 59 | 26 | Nc1ccc(CC(=O)N[C@@H](Cc2ccc3ccccc3c2)C(=O)NCCCC[C@H](NC(=O)N[C@@H](CCC(=O)O)C(=O)O)C(=O)O)cc1 [Example 23-A, (4S,11S,15S)-1-(4-aminophenyl)-4-[(naphthalen-2-yl)methyl]-2,5,13-trioxo-3,6,12,14-tetraazaheptadecane-11,15,17-tricarboxylic acid] |  |  | 
15 | 27 | 7 | NCc1cccc(C(=O)N[C@@H](Cc2ccc3ccccc3c2)C(=O)NCCCC[C@H](NC(=O)N[C@@H](CCC(=O)O)C(=O)O)C(=O)O)c1 [Example 27-A, (3S,10S,14S)-1-[3-(aminomethyl)phenyl]-3-[(naphthalen-2-yl)methyl]-1,4,12-trioxo-2,5,11,13-tetraazahexadecane-10,14,16-tricarboxylic acid] |  |  | 
16 | 85 | 68 | NC[C@H]1CC[C@H](C(=O)N[C@H](Cc2ccc3cnccc3c2)C(=O)NCCCC[C@H](NC(=O)N[C@@H](CCC(=O)O)C(=O)O)C(=O)O)CC1 [Example 44-A, (3R,10S,14S)-1-[(1r,4S)-4-(aminomethyl)cyclohexyl]-3-[(isoquinolin-6-yl)methyl]-1,4,12-trioxo-2,5,11,13-tetraazahexadecane-10,14,16-tricarboxylic acid] |  |  | 
17 | 187 | 129 | NC[C@H]1CC[C@H](C(=O)N[C@@H](Cc2ccc3ccccc3c2Br)C(=O)NCCCC[C@H](NC(=O)N[C@@H](CCC(=O)O)C(=O)O)C(=O)O)CC1 [Example 14-A, (3S,10S,14S)-1-[(1r,4S)-4-(aminomethyl)cyclohexyl]-3-[(1-bromonaphthalen-2-yl)methyl]-1,4,12-trioxo-2,5,11,13-tetraazahexadecane-10,14,16-tricarboxylic acid] |  |  | 
